# From PubChem BioAssay AID1996
# Details: buffer; pH 7.4; 200.0 µM
row,SMILES,solubility kinetic [mg/mL]
1,Cc1cccc(C)c1NC(=O)CN1C(=O)COc2ccccc21,0.006
2,S=C(NC1CC1)NC1CCCc2ccccc21 (stereo not given),> 0.037
3,CCOc1ccc(Br)cc1CNCc1cccnc1,> 0.0482
4,O=C(COc1ccccc1)Nc1ccc2[nH]c(=O)[nH]c2c1,0.0369
5,CN(C)c1ccc(C(=O)NCc2ccc3c(c2)CCO3)cc1,0.0343
6,N#Cc1ccc(Oc2cnccn2)cc1,> 0.0296
7,CN1C(=O)N(C)C(=O)C2(Cc3ccccc3N3CCCC32)C1=O (stereo not given),0.046
8,Cc1nc(C(=O)NCC(=O)c2ccc(Cl)cc2)c(C(F)(F)F)o1,0.0084
9,Cc1ccc2c(c1)C(=O)C(=O)N2CCCOc1ccccc1,0.0027
10,COc1ccc(Cl)cc1NC(=S)Nc1cccnc1,0.0381
11,CCOc1ccc(CCNC(=O)COC(=O)c2ccc(C)s2)cc1OCC,0.0237
12,CCCNC(=O)c1cc2cc([N+](=O)[O-])ccc2s1,0.0014
13,CC(C)(C)c1ccc(N=C2SCC(=O)N2Cc2cccs2)cc1,0.0004
14,COc1ccc(-n2c(C)ccc2C)c([N+](=O)[O-])c1,0.0227
15,O=C1C(=O)N(CCCc2ccccc2)c2ccccc21,0.0325
16,CCN(CC)S(=O)(=O)c1cccc(NC(=O)COC(=O)c2cncc(Br)c2)c1,0.0403
17,COc1ccc(C2(CNC(=O)c3ccccc3)CCCC2)cc1OC,0.0082
18,Clc1cccc(Cl)c1CO/N=C/c1cccs1,> 0.0429
19,CCOc1ccccc1CNCCc1ccc2c(c1)OCO2.Cl,0.0496
20,COc1ccc(OC)c(N2C(=O)c3cccnc3C2=O)c1,> 0.0426
21,Cl.NCCC(=O)N1c2ccccc2Sc2ccc(Cl)cc21,0.0337
22,Cc1ccc(NC(=S)NCCc2ccc(Cl)cc2)c(C)c1,< 0.0003

row,SMILES,solubility kinetic [mg/mL]
1,CCOP(=O)(OCC)C(NC(=O)c1ccc(OC)cc1)c1ccccc1 (stereo not given),0.0538
2,COc1cccc(C(=O)N2CCCN(C)CC2)c1OC,0.0362
3,CCN(C(=O)CN1C(=O)c2ccc([N+](=O)[O-])cc2C1=O)C1CCCCC1,> 0.0539
4,COc1cc2nc(Cl)nc(N3CCOCC3)c2cc1OC,0.0131
5,COc1ccc2oc(=O)c(C(=O)Nc3ccccc3O)cc2c1,0.001
6,CCC(C)NC(=O)c1ccc(C(=O)c2ccccc2)cc1 (stereo not given),0.0416
7,Cc1ccccc1NC(=O)CN1CCN(C(=O)c2ccco2)CC1,> 0.0491
8,CC(C)=CCN1CCN(Cc2cccc3c2OCO3)CC1CCO (stereo not given),0.0365
9,CCOC(=O)c1ccc(S(=O)(=O)NCCNCc2ccccc2)cc1.Cl,> 0.0598
10,NS(=O)(=O)c1ccc(NC(=O)CSc2ncccn2)cc1,> 0.0487
11,CCCNC(=O)C(=O)Nc1cc2c3c(c1)CCC(=O)N3CCC2,> 0.0473
12,O=C(CNC(=O)Cc1ccccc1)NCc1cccs1,0.0419
13,CC1CCCN(C2(O)C(=O)Nc3ccc([N+](=O)[O-])cc32)C1 (stereo not given),0.0166
14,COC(=O)CCCNC(=O)c1ccccn1,> 0.0333
15,Cc1cc(Nc2cccc(Cl)c2)nc(-c2ccccc2O)n1,0.0006
16,O=C(COC(=O)c1cccnc1Cl)NC(=O)NC1CCCCC1,> 0.051
17,CC1(C)Cc2nc3oc4c(SCC(N)=O)ncnc4c3cc2CO1,0.0178
18,O=C(Nc1cccnc1Cl)c1cc(-c2cccc(O)c2)on1,0.0003
19,N#CC1=C(N)N2C(=C(C#N)C13CCCC3)Nc1ccccc12,0.0369
20,O=C1NC(=O)N(Cc2ccccc2)C(=O)/C1=C/C=C/c1ccco1,0.0088
21,CN(Cc1ccccc1)C(=O)COC(=O)c1ccc[nH]c1=O,> 0.045
22,NC(N)=NC(N)=Nc1ccccc1,> 0.0266

row,SMILES,solubility kinetic [mg/mL]
1,CCn1cc([N+](=O)[O-])c(=O)c2cc(F)c(N3CCOCC3)cc21,0.0135
2,CC1CCN(Cc2nc(-c3ccc(Cl)cc3)no2)CC1,0.0022
3,O=C(COC(=O)/C=C/c1ccco1)NC1CCCCC1,0.0163
4,Cc1csc(NC(=O)CSc2ccc([N+](=O)[O-])cn2)n1,0.0338
5,Cc1ccc(NC(=O)Cc2ncon2)cc1Cl,> 0.0378
6,CC(C)CCNC(=O)c1cc2c(=O)[nH]c3ccccc3c2s1,< 0.0003
7,Clc1nc2ccccc2nc1-c1ccccc1,0.0006
8,CCOC(=O)c1c(NC(C)=O)sc(C(=O)NC2CCCC2)c1C,0.001
9,CN(CC(=O)Nc1ccccc1Cl)C(=O)CN1C(=O)C2CC=CCC2C1=O (stereo not given),0.0503
10,Cc1ccc(OCCN2CCOCC2)cc1C,> 0.0353
11,O=[N+]([O-])c1ccc(Cl)c(CN2CCN(c3ncccn3)CC2)c1,0.0351
12,CN1CCN(c2nc(-c3ccccc3Cl)nc3ccccc23)CC1,> 0.0508
13,COC(=O)Cc1ccc(NC(=S)N2CCC(Cc3ccccc3)CC2)cc1,0.0065
14,O=[N+]([O-])C1C(c2ccccc2)=NOC1c1ccccc1O (stereo not given),> 0.0426
15,Cc1cccc(-n2ccnc2CN2CCN(C(C)C)C(CCO)C2)c1 (stereo not given),0.0497
16,C#CC[N+](C)(C)CC#Cc1ccc(C)cc1.[Br-],> 0.0438
17,O=C(Nc1cccc(S(=O)(=O)N2CCCCC2)c1)c1ccc(Cl)nc1,0.0044
18,CC(C)(C)NC(=O)N1CCN(c2ncccc2C(F)(F)F)CC1,> 0.0496
19,COc1ccccc1NS(=O)(=O)c1ccc(C(=O)NCC(c2ccc(F)cc2)N2CCOCC2)cc1 (stereo not given),> 0.077
20,Nc1ccc(C(=O)NCC2(c3ccccc3)CCCC2)cc1,0.0178
21,Cc1ccc(NC(=O)CSc2nnc(/N=C/N(C)C)s2)cc1,> 0.0503
22,O=C(CNC(=O)c1cccc(OC(F)F)c1)Nc1ccc(Cl)cc1,0.0034

row,SMILES,solubility kinetic [mg/mL]
1,Cc1ccc(S(=O)(=O)NC(=O)N(C)C2CCCCC2)cc1,> 0.0466
2,O=C(COC(=O)c1ccc([N+](=O)[O-])o1)NCc1ccccc1,> 0.0456
3,CCN(c1ccccc1)S(=O)(=O)c1cc(NC(=O)CN2CCN(C)CC2)ccc1Cl.O=C(O)C(=O)O,> 0.0812
4,CC(=O)NCCc1nc2cc(NC(=O)c3ccc(F)cc3)ccc2n1C,> 0.0532
5,CCC/C(O)=C1\C(=O)CCCC1=NCCc1c(C)[nH]c2ccccc12,0.0344
6,Cc1noc(C(=O)N(C)c2ccccc2)c1Cl,0.0338
7,Cc1ccc(OCCNC(=O)CCc2ccccc2)cc1C,0.0129
8,Cc1ccc(C)c(OCCC(=O)OCC(=O)NC2CCCC2)c1,0.0435
9,O=C(NCCCN1CCCC1=O)Nc1ccc([N+](=O)[O-])cc1,> 0.0459
10,CC(=O)N1c2ccccc2CCc2ccc(N)cc21.Cl,> 0.0433
11,COCCNC(=O)Cc1c(C)c2c(cc(C)c3c(C(C)(C)C)coc32)oc1=O,0.0032
12,CCNC(=S)Nc1sc2c(c1C#N)CCC(C)C2 (stereo not given),0.0011
13,O=C(O)c1c(Cl)nc2ccccn12,> 0.0295
14,CCOc1ccc2[nH]c3c(NCCN(CC)CC)ncnc3c2c1,0.0432
15,CCc1cc(SC#N)cc(C)c1N,0.0256
16,COCCNC(=S)N1CCN(C)CC1.O=C(O)C(=O)O,> 0.0461
17,CC(C)NC(=O)[C@@H]1CSC2c3ccccc3C(=O)N21 (stereo not given in full),> 0.0415
18,CC(=O)c1c(C)[nH]c(C(=O)Nc2ccc(Cl)cc2F)c1C,0.0007
19,COc1ccc2cc(C(=O)NCCCN3CCCC3=O)[nH]c2c1,> 0.0473
